Read-outs that look alike come from different tables or passages of the source.
Columns and labels:
Type in all cases: cell-based
[1] = test system: Wnt/β-catenin transcription; test: Wnt-3A-stimulated TOPFlash reporter assay in HEK293 cells; details: Wnt-3A conditioned medium, 8 hour treatment, read-out: Inhibition Wnt/β-catenin transcription TopFlash IC50
Experimental: Stably transfected cells were seeded in 100 μl of cell growth medium/well in 96-well plates at 100% confluency. Fifty microliters of Wnt-3A conditioned medium containing the chemical compounds to be tested or DMSO was added to each well. After an 8 hour treatment, the cells were washed once with PBS and lysed with 55 μl of Passive Lysis Buffer supplied in the Dual-Luciferase Reporter Assay kit (Promega, Madison, Wis.). Twenty-five microliters of cell lysate was used for measuring luciferase activity in a 96-well plate reader (FluoStar Optima, BMG Labtech, Chicago, Ill.). Data were fit using GraphPad Prism (mean±SEM, n>=2).

[2] = target: T1, Frizzled1-GFP (Homo sapiens, UniProt Q9UP38); test: Frizzled internalization assay (Fzd1-GFP); set-up: key: Punctate similar to control=0; trace amount of punctate greater than control=1; moderate=3; strong=5; details: 6 hours, 0-5 point scale
T1 construct: expressed in transfected cells
Experimental: The Fzd1-GFP assay was performed following a procedure similar to previously published work (Chen, M. Y.; Wang, J. B.; Lu, J. Y.; Bond, M. C.; Ren, X. R.; Lyerly, H. K.; Barak, L. S.; Chen, W. Biochemistry 2009, 48, 10267). Cells stably expressing Frizzled1-GFP plated in confocal dishes were treated, after 24 hours, with 12.5 μM of test compound or DMSO for 6 hours at 37° C. followed by fixation with 4% paraformaldehyde. The cells were then examined by microscopy using a LSM 510-Meta confocal microscope (Carl Zeiss, Thornwood, N.Y., USA) equipped with 40× and 100× apo chromat objectives. YFP was excited using a 488-nm argon laser line. Images were processed using the LSM software Image Browser (CarlZeiss, Thornwood, N.Y., USA). Plates were read twice in blinded fashion using a 0-5 point scale. ^aPunctate similar to control=0, trace amount of punctate greater than control=1, moderate=3, strong=5.

[3] = test system: β-catenin; test: Western blot of cytosolic β-catenin in HCT-116 cells; details: Homo sapiens, 2.0 μM compound, read-out: Remaining cytosolic β-catenin
Experimental: Western blots were performed following a procedure similar to previously published work (Osada, T.; Chen, M. Y.; Yang, X. Y.; Spasojevic, I.; Vandeusen, J. B.; Hsu, D.; Clary, B. M.; Clay, T. M.; Chen, W.; Morse, M. A.; Lyerly, H. K. Cancer Research 2011, 71, 4172). HCT-116 cells were grown to about 80% confluency in poly-D-lysine coated six-well plates 48 hours before treatment and followed by 2.0 μM compounds or DMSO incubation for 18 hours in growth medium. After treatment, the cytosolic fraction was isolated as described (Osada, T.; Chen, M. Y.; Yang, X. Y.; Spasojevic, I.; Vandeusen, J. B.; Hsu, D.; Clary, B. M.; Clay, T. M.; Chen, W.; Morse, M. A.; Lyerly, H. K. Cancer Research 2011, 71, 4172). Immunoblots using antibodies to […] (E-5, Santa Cruz Biotechnology catalog number sc-7963) was used to detect β-catenin protein levels in the cytosol, and immunoblots using antibodies to β-actin (C-4, Santa Cruz Biotechnology, catalog number SC-47778) was used for loading controls.
Inhibition of Wnt signaling was determined by analyzing the reduction of cytosolic β-catenin by Western blot (FIG. 1, 2).

[4] = test system: colon cancer cell line HCT116; test: Cell proliferation assay (MTS); details: for IC50: Homo sapiens, HCT-116, HCT116, 72 hours, 0.04 to 10 μM, read-out: Anti-proliferation IC50 (μM), MTS assay; for Anti-proliferation activity, MTS assay, in words: HCT116, up to 10 μM
Experimental: The colon cancer cell line HCT116 was used in the cell proliferation assay. The cells were plated in 100 μl of growing medium/well in 96-well plates at 5,000 cells per well and treated with compounds from 0.04 to 10 μM for 72 hours, after which point the cells were analyzed by colorimetric MTS assay (Promega, Madison, Wis., USA). Data were fit using GraphPad Prism (mean±SEM, n 3).

T1 sequence (Q9UP38 70-647): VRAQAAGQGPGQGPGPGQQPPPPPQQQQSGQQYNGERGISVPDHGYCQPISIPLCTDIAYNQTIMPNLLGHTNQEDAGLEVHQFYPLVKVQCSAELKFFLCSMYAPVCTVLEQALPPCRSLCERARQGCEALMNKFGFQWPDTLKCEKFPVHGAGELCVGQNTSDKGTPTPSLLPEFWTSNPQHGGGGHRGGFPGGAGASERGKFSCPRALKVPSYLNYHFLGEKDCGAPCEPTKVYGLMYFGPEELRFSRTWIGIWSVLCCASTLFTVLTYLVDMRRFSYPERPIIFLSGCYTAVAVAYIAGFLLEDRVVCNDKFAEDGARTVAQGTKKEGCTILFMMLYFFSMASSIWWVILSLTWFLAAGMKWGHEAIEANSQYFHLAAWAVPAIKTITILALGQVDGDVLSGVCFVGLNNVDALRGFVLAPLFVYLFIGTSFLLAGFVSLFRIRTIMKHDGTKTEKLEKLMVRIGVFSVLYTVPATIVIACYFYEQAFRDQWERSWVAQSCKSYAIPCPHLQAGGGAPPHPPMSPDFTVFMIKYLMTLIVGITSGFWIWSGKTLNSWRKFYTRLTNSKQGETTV

Compound | IC50 ([1]; Homo sapiens, HEK293, 8 h) | Fzd1-GFP internalization @12.5 μM [2] | also measured
CN(C(=O)c1cc(Cl)ccc1O)c1ccc(C(F)(F)F)cc1 [Compound 24, 5-chloro-2-hydroxy-N-methyl-N-(4-(trifluoromethyl)phenyl)benzamide] | > 12000 nM | 0 | activity at 2 µM ([3]; HCT-116, 18 h): 96%; IC50 [4]: > 10 µM
O=C(Nc1c(Cl)cccc1Cl)c1cc(Cl)ccc1O [Compound 18, 5-chloro-N-(2,6-dichlorophenyl)-2-hydroxybenzamide] | > 12000 nM | 0 | activity at 2 µM ([3]; HCT-116, 18 h): 100%; Anti-proliferation activity, MTS assay, in words [4]: no effect; IC50 [4]: > 10 µM
O=S(=O)(Nc1ccc(C(F)(F)F)cc1Cl)c1cc(Cl)ccc1O [Compound 58, 5-Chloro-N-(2-chloro-4-(trifluoromethyl)phenyl)-2-hydroxybenzenesulfonamide] | 2570 ± 270 nM | 1 | Anti-proliferation activity, MTS assay, in words [4]: no effect
CC(=O)Oc1ccc(Cl)cc1C(=O)Nc1ccc(C(F)(F)F)cc1Cl [Compound 59, 4-Chloro-2-((2-chloro-4-(trifluoromethyl)phenyl)carbamoyl)phenyl acetate] |  | 5 | IC50 ([1]; Homo sapiens, HEK293): 320 ± 30 nM
O=C(NCc1ccc(C(F)(F)F)cc1)c1cc(Cl)ccc1O [Compound 25, 5-chloro-2-hydroxy-N-(4-(trifluoromethyl)benzyl)benzamide] | 15100 ± 1400 nM | 0 | 
O=C(Nc1cc(Cl)cc(Cl)c1)c1cc(Cl)ccc1O [Compound 16, 5-chloro-N-(3,5-dichlorophenyl)-2-hydroxybenzamide] | 700 ± 130 nM | 5 | 
CCOC(=O)Oc1ccc(Cl)cc1C(=O)Nc1ccc(C(F)(F)F)cc1Cl [Compound 70, 4-Chloro-2-((2-chloro-4-(trifluoromethyl)phenyl)carbamoyl)phenyl ethyl carbonate] |  | 5 | activity at 2 µM ([3]; 18 hours): 8%; IC50 ([1]; Homo sapiens, HEK293): 340 ± 120 nM; IC50 [4]: 0.51 ± 0.06 µM
O=C(Nc1ccc(Cl)c(Cl)c1)c1cc(Cl)ccc1O [Compound 17, 5-chloro-N-(3,4-dichlorophenyl)-2-hydroxybenzamide] |  | 5 | IC50 ([1]; Homo sapiens, HEK293): 730 ± 130 nM
O=C(Nc1ccc([N+](=O)[O-])cc1)c1cc(Cl)ccc1O [Compound 2, 5-chloro-2-hydroxy-N-(4-nitrophenyl)benzamide] |  | 5 | IC50 [1]: 990 ± 320 nM
O=c1oc2ccc(Cl)cc2c(=O)n1-c1ccc(C(F)(F)F)cc1Cl [Compound 73, 6-Chloro-3-(2-chloro-4-(trifluoromethyl)phenyl)-2H-benzo[e][1,3]oxazine-2,4(3H)-dione] | 330 ± 100 nM | 5 | activity at 2 µM ([3]; HCT-116, 18 h): 9%; IC50 [4]: 0.55 ± 0.07 µM
O=C(NC(=O)c1cc(Cl)ccc1O)c1ccc(C(F)(F)F)cc1 [Compound 57, 5-Chloro-2-hydroxy-N-(4-(trifluoromethyl)benzoyl)benzamide] | > 12000 nM | 0 | 
NC(=O)c1ccc(NC(=O)c2cc(Cl)ccc2O)cc1 [Compound 4, N-(4-carbamoylphenyl)-5-chloro-2-hydroxybenzamide] | > 12000 nM | 0 | 
CC(=O)c1ccc(NC(=O)c2cc(Cl)ccc2O)cc1 [Compound 3, N-(4-acetylphenyl)-5-chloro-2-hydroxybenzamide] | 6420 ± 510 nM | 0 | 
O=C(c1ccccc1)c1ccc(NC(=O)c2cc(Cl)ccc2O)cc1 [Compound 6, N-(4-benzoylphenyl)-5-chloro-2-hydroxybenzamide] | 15000 nM | 0 | 
O=C(Nc1ccccc1)c1cc(Cl)ccc1O [Compound 1, 5-chloro-2-hydroxy-N-phenylbenzamide] | 11800 nM | 0 | 
O=C(CCCCCNC(=O)CCCCC1SCC2NC(=O)NC21)NCCCCCC(=O)NCCOCCOCCOc1cc([N+](=O)[O-])ccc1NC(=O)c1cc(Cl)ccc1O (centres unmarked) [Compound 29, 5-chloro-2-hydroxy-N-(4-nitro-2-((10,17,24-trioxo-28-(2-oxohexahydro-1H-thieno[3,4-d]imidazol-4-yl)-3,6-dioxa-9,16,23-triazaoctacosyl)oxy)phenyl)benzamide] | > 12000 nM |  | 
O=C(Nc1ccc(C(F)(F)F)cc1)c1cc(Cl)ccc1O [Compound 8, 5-chloro-2-hydroxy-N-(4-(trifluoromethyl)phenyl)benzamide] | 290 ± 60 nM | 5 | activity at 2 µM ([3]; HCT-116, 18 h): 7%; IC50 [4]: 0.67 ± 0.09 µM

Second part, led by results:

IC50 ([1]; Homo sapiens, HEK293, 8 h) | Fzd1-GFP internalization @12.5 μM [2] | Compound | also measured
3050 ± 870 nM | 1 | O=C(Nc1ccccc1Cl)c1cc(Cl)ccc1O [Compound 13, 5-chloro-N-(2-chlorophenyl)-2-hydroxybenzamide] | 
750 ± 130 nM | 5 | O=C(Nc1cc(Cl)ccc1Cl)c1cc(Cl)ccc1O [Compound 15, 5-chloro-N-(2,5-dichlorophenyl)-2-hydroxybenzamide] | 
890 ± 320 nM | 5 | O=C(Nc1cccc(C(F)(F)F)c1)c1cc(Cl)ccc1O [Compound 9, 5-chloro-2-hydroxy-N-(3-(trifluoromethyl)phenyl)benzamide] | 
1210 ± 170 nM | 5 | O=C(Nc1ccc(F)c(Cl)c1)c1cc(Cl)ccc1O [Compound 23, 5-chloro-N-(3-chloro-4-fluorophenyl)-2-hydroxybenzamide] | 
7660 nM | 0 | CS(=O)(=O)c1ccc(NC(=O)c2cc(Cl)ccc2O)c(Cl)c1 [Compound 5, 5-chloro-N-(2-chloro-4-(methylsulfonyl)phenyl)-2-hydroxybenzamide] | 
420 ± 100 nM | 5 | O=C(Nc1ccc(Cl)cc1Cl)c1cc(Cl)ccc1O [Compound 14, 5-chloro-N-(2,4-dichlorophenyl)-2-hydroxybenzamide] | activity at 2 µM ([3]; HCT-116, 18 h): 7%; IC50 [4]: 1.18 ± 0.14 µM
1410 ± 210 nM | 3 | O=C(Nc1ccc(F)cc1Cl)c1cc(Cl)ccc1O [Compound 22, 5-chloro-N-(2-chloro-4-fluorophenyl)-2-hydroxybenzamide] | 
3840 ± 290 nM | 0 | O=C(Nc1ccc(F)cc1)c1cc(Cl)ccc1O [Compound 19, 5-chloro-N-(4-fluorophenyl)-2-hydroxybenzamide] | 
550 ± 110 nM | 5 | O=C(Nc1ccc(C(F)(F)F)cc1F)c1cc(Cl)ccc1O [Compound 10, 5-chloro-N-(2-fluoro-4-(trifluoromethyl)phenyl)-2-hydroxybenzamide] | 
4020 ± 790 nM | 2 | O=C(Nc1ccc(F)cc1F)c1cc(Cl)ccc1O [Compound 20, 5-chloro-N-(2,4-difluorophenyl)-2-hydroxybenzamide] | 
1650 ± 120 nM | 5 | O=C(Nc1cccc(Cl)c1)c1cc(Cl)ccc1O [Compound 12, 5-chloro-N-(3-chlorophenyl)-2-hydroxybenzamide] | 
1300 ± 180 nM | 0 | O=C(Nc1ccc(Cl)cc1)c1cc(Cl)ccc1O [Compound 11, 5-chloro-N-(4-chlorophenyl)-2-hydroxybenzamide] | 

Reference: patent publication US10905665B2, “Chemical modulators of signaling pathways and therapeutic use” (Duke University, priority 2015, dated 2021)
